Test [1] deals with T1, Sphingosine kinase 2 (Homo sapiens, UniProt Q9NRA0).
T1 sequence (Q9NRA0 whole entry): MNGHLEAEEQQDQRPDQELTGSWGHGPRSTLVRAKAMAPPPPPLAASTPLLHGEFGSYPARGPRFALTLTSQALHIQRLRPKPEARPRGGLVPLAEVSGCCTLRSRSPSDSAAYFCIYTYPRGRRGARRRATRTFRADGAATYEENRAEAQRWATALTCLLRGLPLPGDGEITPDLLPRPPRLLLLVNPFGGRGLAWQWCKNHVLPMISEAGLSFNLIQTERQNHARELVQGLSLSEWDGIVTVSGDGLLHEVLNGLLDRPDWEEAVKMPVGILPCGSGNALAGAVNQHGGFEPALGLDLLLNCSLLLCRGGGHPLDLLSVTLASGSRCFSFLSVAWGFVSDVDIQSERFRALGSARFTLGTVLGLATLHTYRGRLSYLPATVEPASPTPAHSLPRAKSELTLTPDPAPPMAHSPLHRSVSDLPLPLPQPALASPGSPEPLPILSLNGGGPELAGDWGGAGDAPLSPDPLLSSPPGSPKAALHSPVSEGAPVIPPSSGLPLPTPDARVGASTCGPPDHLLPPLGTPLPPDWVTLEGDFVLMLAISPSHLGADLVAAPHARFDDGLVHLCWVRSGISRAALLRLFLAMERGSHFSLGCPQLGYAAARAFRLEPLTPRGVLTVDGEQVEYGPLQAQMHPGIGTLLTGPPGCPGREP
The test can be described thus: Inhibition of SphK2.

Test [2] addresses Sphingosine kinase 1 (Homo sapiens, UniProt Q9NYA1). Briefly: Inhibition of SphK1.

This note sets out measurements from ChEMBL document CHEMBL1158441 (Bioorg Med Chem Lett, 2009).

Bounds are passed on as bounds.

Sequence of Sphingosine kinase 1 (Q9NYA1 whole entry): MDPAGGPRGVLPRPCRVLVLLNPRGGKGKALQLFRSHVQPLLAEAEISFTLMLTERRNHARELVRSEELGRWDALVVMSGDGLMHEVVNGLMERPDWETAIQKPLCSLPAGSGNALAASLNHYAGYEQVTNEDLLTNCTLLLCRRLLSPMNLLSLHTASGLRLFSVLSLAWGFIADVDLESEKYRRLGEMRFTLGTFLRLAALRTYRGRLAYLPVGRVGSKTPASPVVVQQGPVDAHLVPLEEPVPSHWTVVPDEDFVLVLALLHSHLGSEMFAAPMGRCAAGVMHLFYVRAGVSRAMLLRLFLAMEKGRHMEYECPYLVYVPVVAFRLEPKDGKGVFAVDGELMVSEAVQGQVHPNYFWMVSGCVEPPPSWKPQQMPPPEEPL

Regarding `N[C@@H](CO)[C@H](O)/C=C/CCCCCCCCCCc1ccc(I)cc1`, the concentration for half-maximal inhibition (IC50) in test [1] stood at 4.38 µM; in test [2], 2.19 µM. The corresponding values for `N[C@@H](CO)[C@H](O)/C=C/CCCCCCCCc1ccc(I)cc1` are 5.73 µM and 0.5 µM. Taken in the same sequence, the figures for `N[C@@H](CO)[C@H](O)/C=C/CCCCCCCCCCCc1ccc(I)cc1` were 13.3 µM and 2.25 µM. In the case of `N[C@@H](CO)[C@H](O)/C=C/CCCCCCCCCc1ccc(I)cc1`, the IC50 in test [1] turned out to be 16.6 µM; in test [2] it was 2.78 µM. In the case of `N[C@@H](CO)[C@H](O)/C=C/CCCCCCCCCCCCCc1ccc(I)cc1`, the results for the IC50 in test [1] and in test [2] were 29.2 µM and 3.98 µM, respectively. On to `N[C@@H](CO)[C@H](O)/C=C/CCCCCCc1ccc(I)cc1`, for which the IC50 in test [1] is 7.23 µM; in test [2], 3.96 µM. In test [1], `CCCCCCCCCCCCC/C=C/[C@@H](O)[C@H](CO)N(C)C` [DIMETHYLSPINGOSINE] returned an IC50 above 80 µM. Turning to `CCCCCCCCCCCCC/C=C/[C@@H](O)[C@@H](N)CO` [SPHINGOSINE], the IC50 in test [1] stood at 1.56 µM.

By IC50 is commonly meant the concentration at which inhibition is half-maximal. Higher therefore signals weaker potency.
